The values that follow come from PMC12598805, “Crystal Structure–Activity Relationship of Some MeO Phenylacrylonitriles: Dual Antimicrobial–Cytotoxic Effects and in Silico Perspectives” (ChemistryOpen, 2025).

For orientation: MBC means the lowest tested concentration that kills the bacteria rather than only halting them. Lower therefore signals more potent killing.

In brackets after ≈: the same amount, converted by molar mass.

For the assay, the system named is Escherichia coli (ATCC 25922). Briefly: MBC by sub-culture from wells without growth. In kind it is cell-based. The note with it: ATCC25922, E.coli. Here is the method:
Escherichia coli (ATCC 25922) […]
ATCC: American Type Culture Collection; NRRL: Northern Regional Research Laboratory The compounds 2(a-c) obtained could only be completely solubilised with dimethyl sulphoxide (DMSO) and the highest possible stock solutions of 50 mg.mL-1 were prepared. […]
3.1. Determination of Minimum Inhibition Concentration (MIC)
The minimum inhibition concentration (MIC) values of the compounds 2(a-c) against the test bacteria used in the study were determined according to the broth microdilution method.[1-2] MHB or SDB was used as test medium and bacterial and yeast suspensions were prepared at 0.5 Mc Farland concentration for each test bacteria. Double layer serial dilutions were prepared in "U" type 96-well microtiter plates. Medium+bacteria suspensions containing only medium in the first row, medium+bacteria in the second row and the final concentrations of the synthesised substances in the other rows between 25 mg.mL-1 and […] were added to the wells with a final volume of 200
μL. Ampicillin, Kanamycin and Amphotericin B standard antibiotics were used as positive controls.
Bacteria were incubated at 37±0.1 °C and C. albicans at 30±0.1 °C for 24-48 hours and the lowest concentration without growth was determined as MIC. Tests were performed in two parallel runs and mean values were given as a result. […]

The compound `COc1ccc(C=C(C#N)c2ccccc2)cc1` [2a, 3‐(4‐methoxyphenyl)‐2‐phenylacrylonitrile] came in with an MBC of 5000 µg/mL (≈ 21.3 mM).
